{
  "source": "patent US9849088B2",
  "about": "“Depot formulations of a hydrophobic active ingredient and methods for preparation thereof” (PAINREFORM LTD., priority 2012, dated 2017)",
  "origin": "cited, not measured here",
  "conditions": "comparison value",
  "data": [
    {"smiles": "CCCN1CCCC[C@H]1C(=O)Nc1c(C)cccc1C", "note": "[ropivacaine]", "values": [
      {"measurement": "Toxic threshold (plasma)", "result": 0.6, "unit": "µg/mL"}
    ]}
  ]
}
